Several values for one entry are separate records, joined by “and”; a condition that tells them apart may be missing. Equal values may be shown once.
Assay: molar heat capacity at constant pressure
Conditions: 101.33 kPa, Quantum Design PPMS relaxation calorimeter

O=P([O-])([O-])OP(=O)([O-])[O-].[Fe+2].[Fe+2] [iron(II) pyrophosphate]
molar heat capacity at constant pressure
Conditions	Crystal 1	Crystal 2
1 K	–	0.08666 J/K/mol
1.913 K	–	0.1778 J/K/mol
2 K	–	0.1915 J/K/mol
2.064 K	–	0.1986 J/K/mol
2.26 K	–	0.2225 J/K/mol
2.531 K	–	0.2638 J/K/mol
2.801 K	–	0.3059 J/K/mol
3 K	–	0.3363 J/K/mol
3.099 K	–	0.357 J/K/mol
3.44 K	–	0.423 J/K/mol
3.822 K	–	0.5078 J/K/mol
4 K	–	0.5546 J/K/mol
4.26 K	–	0.6259 J/K/mol
4.75 K	–	0.7875 J/K/mol
5 K	–	0.8911 J/K/mol
5.271 K	–	1.009 J/K/mol
5.851 K	–	1.309 J/K/mol
6 K	–	1.402 J/K/mol
6.516 K	–	1.743 J/K/mol
7 K	–	2.14 J/K/mol
7.28 K	–	2.343 J/K/mol
8 K	–	3.105 J/K/mol
8.038 K	–	3.122 J/K/mol
8.944 K	–	4.246 J/K/mol
9 K	–	4.353 J/K/mol
9.847 K	–	5.612 J/K/mol
10 K	–	5.87 J/K/mol
10.08 K	–	5.991 J/K/mol
10.35 K	–	6.444 J/K/mol
10.86 K	–	7.341 J/K/mol
11 K	–	7.59 J/K/mol
11.2 K	–	7.958 J/K/mol
11.38 K	–	8.272 J/K/mol
11.88 K	–	9.198 J/K/mol
12 K	–	9.403 J/K/mol
12.4 K	–	10.13 J/K/mol
12.41 K	–	10.27 J/K/mol
12.91 K	–	11.04 J/K/mol
13 K	–	11.22 J/K/mol
13.42 K	–	11.97 J/K/mol
13.81 K	–	12.78 J/K/mol
13.93 K	–	12.96 J/K/mol
14 K	–	13.1 J/K/mol
14.15 K	–	13.36 J/K/mol
14.44 K	–	13.97 J/K/mol
14.67 K	–	14.41 J/K/mol
14.95 K	–	15.04 J/K/mol
15 K	–	15.16 J/K/mol
15.19 K	–	15.57 J/K/mol
15.31 K	–	15.94 J/K/mol
15.46 K	–	16.16 J/K/mol
15.7 K	–	16.68 J/K/mol
15.96 K	–	17.32 J/K/mol
16 K	–	17.48 J/K/mol
16.21 K	–	17.94 J/K/mol
16.46 K	–	18.55 J/K/mol
16.73 K	–	19.27 J/K/mol
16.97 K	–	19.88 J/K/mol
17 K	–	20.05 J/K/mol
17.03 K	–	20.07 J/K/mol
17.21 K	–	20.48 J/K/mol
17.47 K	–	21.15 J/K/mol
17.72 K	–	21.75 J/K/mol
17.97 K	–	22.35 J/K/mol
18 K	–	22.46 J/K/mol
18.22 K	–	22.9 J/K/mol
18.45 K	–	23.46 J/K/mol
18.7 K	–	23.76 J/K/mol
18.86 K	–	23.9 J/K/mol
18.96 K	23.94 J/K/mol and 23.94 J/K/mol	23.94 J/K/mol
19 K	23.61 J/K/mol	–
19.22 K	23.87 J/K/mol	–
19.47 K	23.67 J/K/mol	–
19.72 K	23.25 J/K/mol	–
19.96 K	22.81 J/K/mol	–
20 K	22.76 J/K/mol	–
20.21 K	22.3 J/K/mol	–
20.45 K	21.81 J/K/mol	–
20.7 K	21.41 J/K/mol	–
20.95 K	21.05 J/K/mol	–
21.21 K	20.68 J/K/mol	–
21.46 K	20.31 J/K/mol	–
21.71 K	20.15 J/K/mol	–
21.96 K	20.02 J/K/mol	–
22.21 K	19.89 J/K/mol	–
22.47 K	19.76 J/K/mol	–
22.74 K	19.73 J/K/mol	–
22.99 K	19.67 J/K/mol	–
23.23 K	19.65 J/K/mol	–
23.29 K	19.66 J/K/mol	–
23.48 K	19.65 J/K/mol	–
23.52 K	19.74 J/K/mol	–
23.7 K	19.62 J/K/mol	–
23.73 K	19.62 J/K/mol	–
23.9 K	19.67 J/K/mol	–
23.98 K	19.66 J/K/mol	–
24.1 K	19.7 J/K/mol	–
24.3 K	19.72 J/K/mol	–
24.47 K	19.77 J/K/mol	–
24.66 K	19.78 J/K/mol	–
24.86 K	19.85 J/K/mol	–
25 K	19.89 J/K/mol and 19.88 J/K/mol	–
25.05 K	19.91 J/K/mol	–
25.25 K	19.94 J/K/mol	–
25.46 K	19.99 J/K/mol	–
25.48 K	20.02 J/K/mol	–
25.65 K	20.06 J/K/mol	–
25.84 K	20.15 J/K/mol	–
25.86 K	20.19 J/K/mol	–
25.98 K	20.18 J/K/mol	–
26.04 K	20.21 J/K/mol	–
26.23 K	20.27 J/K/mol	–
26.42 K	20.35 J/K/mol	–
26.51 K	20.4 J/K/mol	–
26.62 K	20.45 J/K/mol	–
26.81 K	20.52 J/K/mol	–
26.98 K	20.63 J/K/mol	–
27 K	20.61 J/K/mol	–
27.2 K	20.71 J/K/mol	–
27.39 K	20.81 J/K/mol	–
27.53 K	20.88 J/K/mol	–
27.58 K	20.9 J/K/mol	–
27.78 K	20.99 J/K/mol	–
27.98 K	20.92 J/K/mol	–
27.99 K	20.94 J/K/mol	–
28.18 K	20.76 J/K/mol	–
28.34 K	20.71 J/K/mol	–
28.53 K	20.72 J/K/mol	–
28.55 K	20.74 J/K/mol	–
28.68 K	20.78 J/K/mol	–
28.75 K	20.76 J/K/mol	–
28.95 K	20.82 J/K/mol	–
29.05 K	20.85 J/K/mol	–
29.12 K	20.86 J/K/mol	–
29.33 K	20.93 J/K/mol	–
29.51 K	21.05 J/K/mol	–
29.53 K	20.99 J/K/mol	–
29.72 K	21.07 J/K/mol	–
29.91 K	21.11 J/K/mol	–
30 K	21.15 J/K/mol	–
30.06 K	21.18 J/K/mol	–
30.11 K	21.2 J/K/mol	–
30.3 K	21.27 J/K/mol	–
30.5 K	21.35 J/K/mol	–
30.52 K	21.34 J/K/mol	–
30.7 K	21.43 J/K/mol	–
30.89 K	21.5 J/K/mol	–
31.05 K	21.58 J/K/mol	–
31.54 K	21.77 J/K/mol	–
31.86 K	21.93 J/K/mol	–
32.06 K	22.02 J/K/mol	–
32.55 K	22.21 J/K/mol	–
33.06 K	22.48 J/K/mol	–
33.6 K	22.75 J/K/mol	–
34.07 K	22.98 J/K/mol	–
35 K	23.58 J/K/mol	–
35.39 K	23.86 J/K/mol	–
39.3 K	26.23 J/K/mol	–
40 K	26.79 J/K/mol	–
43.62 K	29.29 J/K/mol	–
45 K	30.48 J/K/mol	–
48.44 K	33.24 J/K/mol	–
50 K	34.53 J/K/mol	–
53.8 K	37.9 J/K/mol	–
55 K	38.88 J/K/mol	–
59.7 K	43.41 J/K/mol	–
60 K	43.45 J/K/mol	–
65 K	48.17 J/K/mol	–
66.33 K	49.51 J/K/mol	–
70 K	52.96 J/K/mol	–
73.67 K	56.22 J/K/mol	–
75 K	57.77 J/K/mol	–
80 K	62.51 J/K/mol	–
81.81 K	63.97 J/K/mol	–
85 K	67.27 J/K/mol	–
90 K	72.12 J/K/mol	–
90.85 K	72.47 J/K/mol	–
95 K	76.73 J/K/mol	–
100 K	81.13 J/K/mol	–
100.84 K	81.1 J/K/mol	–
110 K	89.39 J/K/mol	–
110.99 K	89.55 J/K/mol	–
120 K	97.12 J/K/mol	–
120.88 K	97.62 J/K/mol	–
130 K	104.5 J/K/mol	–
131.05 K	105.42 J/K/mol	–
140 K	111.61 J/K/mol	–
141.03 K	112.91 J/K/mol	–
150 K	118.53 J/K/mol	–
151.17 K	119.77 J/K/mol	–
160 K	125.27 J/K/mol	–
161.25 K	126.73 J/K/mol	–
170 K	131.84 J/K/mol	–
171.3 K	133.11 J/K/mol	–
180 K	138.23 J/K/mol	–
181.45 K	139.41 J/K/mol	–
190 K	144.41 J/K/mol	–
191.55 K	145.2 J/K/mol	–
200 K	150.38 J/K/mol	–
201.65 K	151.21 J/K/mol	–
210 K	156.13 J/K/mol	–
211.78 K	157.08 J/K/mol	–
220 K	161.63 J/K/mol	–
221.88 K	161.91 J/K/mol	–
230 K	166.89 J/K/mol	–
232.02 K	167.23 J/K/mol	–
240 K	171.91 J/K/mol	–
242.09 K	171.91 J/K/mol	–
250 K	176.68 J/K/mol	–
252.14 K	177.54 J/K/mol	–
260 K	181.21 J/K/mol	–
262.21 K	182.5 J/K/mol	–
270 K	185.5 J/K/mol	–
272.36 K	187.75 J/K/mol	–
273.15 K	186.8 J/K/mol	–
280 K	189.56 J/K/mol	–
282.44 K	193.26 J/K/mol	–
290 K	193.4 J/K/mol	–
292.45 K	194.84 J/K/mol	–
298.15 K	196.38 J/K/mol	–
300 K	197.04 J/K/mol	–
302.52 K	200.88 J/K/mol	–

Source: the NIST ThermoML archive (doi:10.1016/j.jct.2013.02.001)
